Data published in paper PMC5983452 (PLoS ONE, 2018).
Values joined by “and” are separate entries in the source; they are usually repeats but may differ in a detail not shown here. Identical values can stand only once. Counter-ions that a name gives are not always drawn. Like-named read-outs stand apart in the source and are kept apart here.

How the values were obtained:
[1] = type: in vitro ADME; conditions: plasma
Protocol: After stirred for 30 min at 25 °C, NaBH3CN […]
mixture was concentrated under vacuum. […] The combined organic […]
The crude product was further
The fractions containing product were combined and concentrated. […]
cyclopropylisoxazole-3-carboxamide hydrochloride as a light yellow solid.
Media was changed every two or three days. On
95% at 37°C. […] Cells were
At 120 min the companion plate was
Permeability was assessed in duplicate, on two […]
different occasions. […] Compounds were quantified by LC-MS/MS analysis using a 5 point calibration curve.
The permeability coefficient
Solutions of test compounds (1 µM, 0.5% final
Incubations were performed in
Haloperidol was incubated in parallel as the control compound for each species.
(7 points) and protein containing solutions (6 points).
Liver microsome (LM) stability. […]
the reaction. The final incubation volume was 50 µL. Negative control incubations were included where phosphate buffer was […]
min. The negative controls were incubated for 45 min only. […]
µL methanol at the appropriate time points.
Subsequently, intrinsic CL (CLint) was […]

in vitro [2] = type: in vitro ADME, CD-1 mice; conditions: male, CD-1, mouse, microsomes, pH 7.4
in vitro [3] = type: in vitro ADME, beagle dogs; conditions: male, beagle, dog, microsomes, pH 7.4
[4] = Hepatocyte stability, mouse; type: in vitro ADME, CD-1 mice; conditions: male, CD-1, mouse, cryopreserved hepatocytes, read-out: CLint measured with hepatocytes, Mouse
[5] = Hepatocyte stability, human; type: in vitro ADME, humans; conditions: for hepatocyte CLint at 1 µM: both sexes, human, cryopreserved hepatocytes, read-out: CLint measured with hepatocytes, Human
[6] = Dog pharmacokinetic study; type: in vivo, male beagle dogs; conditions: male Beagle
Protocol: (§1) 2. […] Food was returned 4 hours after dosing. […] 4. […] Food was returned 4 hours after dosing. […] Supplemental Results:SMYD2 compound characterization […] The […] nM (Figure S8A).

[7] = Monkey (NHP) pharmacokinetic study; type: in vivo, male cynomolgus monkeys; conditions: cynomolgus monkey, male Cynomolgus
Protocol: as §1

in vitro [8] = conditions: human
Protocol: (§2) Caco-2 permeability. Caco-2 cells (obtained from the ATCC), between passage numbers 40 to 60, were seeded onto Millipore
(§3) Multiscreen plates at 1x10^5 cells/cm2 in Dulbecco's Modified Eagle Medium. Media was changed every two or three days. On
(§4) Day 20, the permeability study was performed using Hanks Balanced Salt Solution (HBSS) pH 7.4 buffer with 25 mM HEPES and
(§5) Incubations were carried out in an atmosphere of 5% CO2 with a relative humidity of
(§6) The monolayers were prepared by rinsing both basolateral and apical surfaces twice with HBSS at 37°C. Cells were
then incubated with HBSS in both apical and basolateral compartments for 40 min to stabilize physiological parameters. HBSS
was then removed from the apical or basolateral compartment and replaced with 10 µM test compound dosing solutions (1% final
DMSO). The pH of supplemented HBSS was 6.5 and 7.5 in the apical and basolateral compartments, respectively. The apical
compartment inserts were then placed into ‘companion’ plates containing fresh HBSS.
(§7) removed and apical and basolateral samples diluted for analysis by LC-MS/MS. Permeability was assessed in duplicate, on two
different occasions. On each plate atenolol and propanolol were run as controls. Compounds were quantified by LC-MS/MS analysis using a 5 point calibration curve. The starting concentration (C0) was determined from the dosing solution and
experimental recovery calculated from C0 and both apical and basolateral compartment concentrations. The permeability coefficient
(Papp) for each compound was calculated as: (dQ/dt)/(C0xA), where dQ/dt is the rate of permeation of the drug across the cells, C0
is the donor compartment concentration at time zero and A is the area of the cell monolayer.
Plasma protein binding. Plasma protein binding was assessed by equilibrium dialysis utilizing the HT-dialysis cell format with a
cellulose semi-permeable membrane (molecular weight cut-off of 5000 Da). Solutions of test compounds (1 µM, 0.5% final
DMSO concentration) were prepared in isotonic phosphate buffer (pH 7.4) and 100% pooled male CD-1 mouse plasma. The
buffer solution was added to one side of the membrane and the plasma solution to the other side. Incubations were performed in
Haloperidol was incubated in parallel as the control compound for each species. At the end of the incubation time, samples were taken from both sides of the membrane.
Following protein precipitation, the samples were analyzed by LC-MS/MS using two sets of calibration standards for protein free
(7 points) and protein containing solutions (6 points). Samples were quantified using standard curves prepared in the equivalent
matrix. The fraction unbound in plasma (fu) was calculated using the following equation:
Where, PC = sample concentration in protein containing side, PF = sample concentration in protein free side, and VCorrection =
correction factor for the volume shift i.e. ratio of the volume of the protein after dialysis to that before dialysis.

in vitro [9] = conditions: male, CD-1, mouse, plasma, pH 7.4
Protocol: as §2, §3, §4, §5, §6
(§8) then incubated with HBSS in both apical and basolateral compartments for 40 min to stabilize physiological parameters. HBSS […]
as §7
(§9) different occasions. […] Compounds were quantified by LC-MS/MS analysis using a 5 point calibration curve. The starting concentration (C0) was determined from the dosing solution and
(§10) experimental recovery calculated from C0 and both apical and basolateral compartment concentrations. […]
(§11) (Papp) for each compound was calculated as: (dQ/dt)/(C0xA), where dQ/dt is the rate of permeation of the drug across the cells, C0 […]
(§12) Plasma protein binding. Plasma protein binding was assessed by equilibrium dialysis utilizing the HT-dialysis cell format with a […]

[10] = Mouse pharmacokinetic study; conditions: male, CD-1, mouse; for half-life / Vd / clearance / Tmax / bioavailability: plasma
Protocol: Mouse, rat, dog and monkey pharmacokinetic studies. The studies were performed in accordance with the AAALAC International
administered intravenousely (1 mg/kg in saline, tail vein injection, 2 mL/kg) and orally (5 mg/kg in 0.5%
MC/0.1% Tween 80, oral gavage, 10 mL/kg). Animals were weighed prior to dose administration and had free
access to water and food. At pre-specified time intervals up to 24 hours post-dose, blood samples (approximately
30 μL) were collected from saphenous vein into polypropylene micro centrifuge tubes (containing 2 μL of 1000
IU/ml Heparin-Na as anticoagulant) and stored on wet ice until processed to plasma by centrifugation (2000 rpm
for 5 min at 4C) within 30 min of collection. In the same study, urine was collected for 24 hours. For
intravenousely (2 mg/kg in ethanol:saline (10:90) solution, tail vein injection, 2 mL/kg) and orally (100 mg/kg in
ethanol:saline (20:80) solution, oral gavage, 10 mL/kg). Animals were weighed prior to dose administration and

SMYD2 = SMYD2 (Homo sapiens, UniProt Q9NRG4); assay: SMYD2 biochemical methylation assay (3H-SAM, H3,1–29 peptide, flashplate); design: Full length FLAG-SMYD2 and C-terminally Avi-tagged full length SMYD2 (SMYD2-Avi) were cloned into pFastbac vectors; FLAG (N); His tag with TEV cleavage site (N, cleaved yes); made in house; host or cells: Sf9 insect cells (baculovirus)
Sequence of SMYD2 (Q9NRG4 whole entry): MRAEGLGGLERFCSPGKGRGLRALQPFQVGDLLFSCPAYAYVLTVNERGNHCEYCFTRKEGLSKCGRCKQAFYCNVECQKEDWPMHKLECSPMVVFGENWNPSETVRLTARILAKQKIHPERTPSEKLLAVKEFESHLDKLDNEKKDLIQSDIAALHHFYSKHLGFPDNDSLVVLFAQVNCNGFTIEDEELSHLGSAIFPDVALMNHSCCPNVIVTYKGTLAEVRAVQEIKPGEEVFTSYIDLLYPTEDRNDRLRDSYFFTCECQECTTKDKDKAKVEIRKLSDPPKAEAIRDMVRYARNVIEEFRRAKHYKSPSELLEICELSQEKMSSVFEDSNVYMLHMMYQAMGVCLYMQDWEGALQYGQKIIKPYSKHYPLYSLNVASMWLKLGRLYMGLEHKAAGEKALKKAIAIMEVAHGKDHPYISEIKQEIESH
Protocol: Full length FLAG-SMYD2 and C-terminally Avi-tagged full length SMYD2 (SMYD2-Avi) were cloned into pFastbac vectors containing an N-terminal His tag with TEV cleavage site. Virus production was performed using standard protocols and the proteins were coexpressed in either Sf9 (SMYD2) or Hi Five (SMYD2-Avi) cells. After harvest by centrifugation, cell pellets for both proteins were resuspended, sonicated, and then centrifuged to remove cell debris. Protein was purified using nickel affinity chromatography before and after TEV cleavage in a similar fashion as SMYD3. […] SMYD2-Avi was biotinylated using His-tagged BirA enzyme after dialysis into a low salt buffer and the BirA was removed with a final nickel affinity column. […] SMYD3 assays were performed as previously described using N-terminally GST-tagged MAP3K2 protein substrate. […] Reactions were conducted at room temperature with enzyme and inhibitor incubated for 30 minutes before initiating the reaction with substrates. Dose-response curves were tested in duplicate in each experiment. […] Quenched reactions were transferred to a streptavidin-coated flashplate (Perkin Elmer) for capture of the biotinylated peptide. After 2 h incubation at room temperature, the flashplate was washed once with 0.1% Tween-20 and read on a Perkin Elmer Topcount NXT plate reader. Substrate apparent KM values were determined by measuring the initial velocities (v0) in duplicate while varying one substrate at fixed concentration of the second substrate. […] Percent inhibition by compound (% inh) was calculated from Eq 3 %inh=(1-([…] the signal in the presence of compound and max and min are the signals for the DMSO and background controls respectively. […] Mechanism of inhibition was determined by measuring the inhibitor IC50 values while varying the concentration of one substrate at a fixed concentration of the second substrate equal to its KM value. The inhibition constant Ki was calculated from fitting the IC50 versus varied substrate concentration data using the Cheng-Prusoff equations for mixed-type and noncompetitive inhibition below. α is the coefficient accounting for differences in inhibitor affinity between binding enzyme forms after versus before substrate binding.

KYSE-150 = assay: Cell proliferation, KYSE-150; type: cell-based; conditions: Homo sapiens, read-out: Cellular Proliferation IC50
Protocol: Cell lines used in these experiments were obtained from the following sources and were cultured according to conditions specified by the respective cell banks. […] The cell lines listed above were tested for mycoplasma and were negative. Cells were authenticated by STR method or vendor protocols. All 313 cell lines in the CRIPSR pooled screen were purchased from commercial vendors and were STR authenticated and mycoplasma negative. A broad panel of cancer cell lines was screened in the Eurofins Oncopanel. All cells in this panel were mycoplasma negative and STR verified.
Thus, 5 compounds representing 4 distinct pharmacophore series of SMYD2 inhibitors are now available for testing the dependence of cancer lines on SMYD2 activity. […] In stark contrast, however, no correlation is seen between the potency for BTF3 methylation inhibition and anti-proliferative activity among these compounds (Fig 3B).

[11] = Plasma protein binding (equilibrium dialysis), mouse; conditions: male, CD-1, mouse, pH 7.4
Protocol: as §2, §3, §4, §5, §6, §8, §7, §9, §10, §11, §12

[12] = plasma, IV 1 mg/kg, read-out: CLp
[13] = plasma, IV 1 mg/kg, read-out: Vss

NC1CCC(S(=O)(=O)N2C3CCC2CC(NC(=O)c2cc(C4CC4)on2)C3)CC1 [EPZ028862, N-((1R,3R,5S)-8-((1r,4R)-4-aminocyclohexylsulfonyl)-8-aza-bicyclo[3.2.1]octan-3-yl)-5-cyclopropylisoxazole-3-carboxamide hydrochloride]
Monkey fu (unbound fraction) [1]: highly bound | microsomal CLint at 1 µM (in vitro [2]): 3.3 µL/min/mg | microsomal CLint at 1 µM (in vitro [3]): < 3 µL/min/mg | hepatocyte CLint at 1 µM [4]: 6.6 µL/min/1e6 cells | CLint measured with hepatocytes, Human ([5]; 1 µM): 3.7 µL/min/106 cells and < 3 µL/min/106 cells | hepatocyte CLint at 1 µM [5]: 4.8 µL/min/1e6 cells | MRT ([6]; plasma, IV 1 mg/kg, PO 5 mg/kg): 7 ± 0.2 h | bioavailability ([6]; plasma, IV 1 mg/kg, PO 5 mg/kg): 70 ± 6% | half-life ([6]; plasma, IV 1 mg/kg, PO 5 mg/kg): 5.4 ± 0.1 h | clearance [6, 12]: 13.9 ± 1.2 mL/min/kg | Vd [6, 13]: 5.8 ± 0.6 L/kg | Tmax ([6]; plasma, PO 5 mg/kg): 1.5 ± 0.9 h | CL renal ([6]; urine and plasma, IV 1 mg/kg): 1.97 ± 0.38 mL/min/kg | MRT ([7]; plasma, IV 1 mg/kg, PO 5 mg/kg): 7.4 ± 1.5 h | bioavailability ([7]; plasma, IV 1 mg/kg, PO 5 mg/kg): 62 ± 13% | half-life ([7]; plasma, IV 1 mg/kg, PO 5 mg/kg): 5.6 ± 1.3 h | clearance [7, 12]: 21.4 ± 3.4 mL/min/kg | Vd [7, 13]: 9.5 ± 2.5 L/kg | Tmax ([7]; plasma, PO 5 mg/kg): 2 h | CL renal ([7]; urine and plasma, IV 1 mg/kg): 1.06 ± 0.84 mL/min/kg | Papp A→B at 120 min, 10 µM (in vitro [8]; Caco-2, Papp,AB): 0.46 ×10⁻⁶ cm/s | Papp B→A at 120 min, 10 µM (in vitro [8]; Caco-2, Papp,BA): 16.4 ×10⁻⁶ cm/s | fraction unbound at 16 h, 1 µM (in vitro [9]): 0.51 | half-life [10]: 2 h | Vd ([10]; iv, 1 mg/kg): 9.5 L/kg | clearance ([10]; iv, 1 mg/kg): 79.8 mL/min/kg | Tmax ([10]; po, 5 mg/kg): 0.33 h | bioavailability ([10]; po, 5 mg/kg): ~100% | CL renal ([10]; urine and plasma, iv, 1 mg/kg): 23.6 mL/min/kg | IC50 (SMYD2; tested in duplicate, read-out: selectivity panel result, SMYD2 (off-target)): > 10000 nM

O=C(NC1CN(Cc2cnn(Cc3ccc(Cl)cc3)c2)C1)c1cn(C2CC2)nn1 [EPZ033294]
IC50 (KYSE-150): > 40000 nM | hepatocyte CLint at 1 µM [4]: 10.9 µL/min/1e6 cells | hepatocyte CLint at 1 µM [5]: 6 µL/min/1e6 cells | half-life [10]: 3.2 ± 1 h | Vd ([10]; iv, 2 mg/kg): 4.5 ± 1 L/kg | clearance ([10]; iv, 2 mg/kg): 37.4 ± 6.7 mL/min/kg | bioavailability ([10]; oral, 10 mg/kg): 241 ± 20% | Tmax ([10]; po, 10 mg/kg): 1.7 ± 0.6 h | fraction unbound at 16 h, 1 µM [11]: 0.26 | mechanism of inhibition with respect to peptide substrate (SMYD2; 1 nM enzyme, 20 nM SAM, varied H3,1–29): noncompetitive | IC50 (SMYD2; IC50 at 20 nM SAM, 1 nM SMYD2, 60 nM H3,1-29, 20 nM SAM): 2.8 ± 0.4 nM | IC50 (SMYD2; IC50 at 200 nM SAM, 1 nM SMYD2, 60 nM H3,1-29, 200 nM SAM): 3.2 ± 0.5 nM | mechanism of inhibition with respect to SAM (SMYD2; IC50 compared at two SAM concentrations differing by 10-fold): either noncompetitive or uncompetitive | IC50 (SMYD2; SMYD2, 20 nM SAM, 60 nM H3,1–29 peptide, read-out: Biochemical IC50): 3.9 nM | Ki (SMYD2; varied H3,1–29 peptide, Eq 6, read-out: Ki (noncompetitive versus peptide)): 3.9 ± 0.4 nM
